# Test results published in ChEMBL document CHEMBL1129090, “Potent fluoromethyl ketone inhibitors of recombinant human calpain I” (Bioorg Med Chem Lett, 1996).
# *1 amine or outer side, *2 acyl side, *3 side chain or, on linkers, in order; H or OH if unused. Where a SMILES comes first, the peptide text is derived from it. [ ]: non-standard residue; d: D form. The star is where a group is joined. ξ: configuration not given here. ξF = NC(Cc1ccccc1)C(=O)O; Cbz = O=C(OCc1ccccc1)*; Boc = CC(C)(C)OC(=O)*; CO = O=C([*:1])[*:2]; NHBn = c1ccc(CN*)cc1; ξAbu = CCC(N)C(=O)O; CH2F = FC*
# Molecular target: T1, Calpain-1 catalytic subunit (Homo sapiens) (UniProt P07384)
# T1 sequence (whole entry): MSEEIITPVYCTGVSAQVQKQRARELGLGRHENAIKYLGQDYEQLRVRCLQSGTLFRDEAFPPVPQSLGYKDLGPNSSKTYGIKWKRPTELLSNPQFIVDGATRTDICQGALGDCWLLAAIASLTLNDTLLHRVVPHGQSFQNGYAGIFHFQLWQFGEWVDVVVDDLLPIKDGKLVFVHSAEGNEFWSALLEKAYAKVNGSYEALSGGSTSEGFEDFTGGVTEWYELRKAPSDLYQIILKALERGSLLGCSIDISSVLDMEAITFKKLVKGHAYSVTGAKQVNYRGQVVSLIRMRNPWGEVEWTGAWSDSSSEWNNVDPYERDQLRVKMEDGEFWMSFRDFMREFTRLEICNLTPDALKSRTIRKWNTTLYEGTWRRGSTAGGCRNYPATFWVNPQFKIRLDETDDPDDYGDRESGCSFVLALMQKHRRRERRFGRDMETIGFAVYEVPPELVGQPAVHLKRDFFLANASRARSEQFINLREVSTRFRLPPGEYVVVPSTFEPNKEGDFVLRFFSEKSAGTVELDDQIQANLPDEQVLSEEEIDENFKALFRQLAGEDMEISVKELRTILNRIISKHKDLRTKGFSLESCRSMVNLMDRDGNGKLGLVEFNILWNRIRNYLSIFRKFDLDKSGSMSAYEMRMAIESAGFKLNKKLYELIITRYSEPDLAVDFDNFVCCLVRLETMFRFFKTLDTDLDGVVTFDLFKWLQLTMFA
# Experiment: Compound was tested for inhibitory activity against recombinant human Calpain 1
row,SMILES,K obs / 1
1,CC(C)C[C@H](NC(=O)OC(C)(C)C)C(=O)NC(Cc1ccccc1)C(=O)CF (stereo partly drawn) (Boc-Leu-[ξF]-CH2F),68600 M⁻¹ s⁻¹
2,CC(C)C[C@H](NC(=O)[C@H]1O[C@@H]1C(=O)O)C(=O)NCCCCN=C(N)N,4700 M⁻¹ s⁻¹
3,CC(C)C[C@H](NS(=O)(=O)N1CCOCC1)C(=O)NC(Cc1ccccc1)C(=O)CF (stereo partly specified),67200 M⁻¹ s⁻¹

# Other lines, results leading:
row,K obs / 1,SMILES
1,136000 M⁻¹ s⁻¹,CC(C)C[C@H](NC(=O)OCc1ccccc1)C(=O)NC(Cc1ccccc1)C(=O)CF (stereo partly drawn) (Cbz-Leu-[ξF]-CH2F)
2,24200 M⁻¹ s⁻¹,CCC(NC(=O)[C@H](CC(C)C)NC(=O)OCc1ccccc1)C(=O)CF (stereo partly drawn) (Cbz-Leu-[ξAbu]-CH2F)
3,67200 M⁻¹ s⁻¹,CC(C)C[C@H](NC(=O)NCc1ccccc1)C(=O)NC(Cc1ccccc1)C(=O)CF (stereo partly specified) ({NHBn-CO}-Leu-[ξF]-CH2F)
